Test results published in patent publication US12390532B2, “ALK protein regulator and anti-tumor application thereof” (SHANGHAITECH UNIVERSITY, priority 2019, dated 2025).
Read-outs that look alike come from different tables or passages of the source.

Key:
Format in all cases: cell-based
ALK protein = target: T1, ALK protein (Homo sapiens, UniProt Q9UM73); assay: Western blot of ALK protein degradation in SR cells
T1 construct: We studied the total ALK protein in the anaplastic large cell lymphoma cell line SR; host or cells: SR cells (human anaplastic large cell lymphoma); the other entry of the earlier key: NPM1 (P06748, Nucleophosmin)
Protocol: (§1) The ALK gene rearrangement positive cell line used was SR cells (NPM-ALK, human anaplastic large cell lymphoma cells). MDA-MB231 was a triple-negative breast cancer cell. Both SR cells and MDA-MB231 cells were purchased from ATCC. The 293T cells overexpressing EML4-ALK G1202R were the cells constructed and verified for correct expression by this laboratory.
Tumor cells were seeded in a 24-well plate containing 1 ml of RPMI1640 medium at 1.5-3×10^5 cells/well. The next day, the cells were treated with different concentrations of drugs. After 16 hours, the supernatant was removed and the cells were washed with PBS. The cells were placed on ice and the cells were treated with RIPA protein lysate containing Halt protease and phosphatase inhibitors. The lysate was centrifuged at 10000RPM at 4° C. for 10 minutes, and the supernatant was collected. The same amount of protein was added to the 4×SDS sample solution, denatured at 95° C. for 5 minutes and freezen to −20° C., or protein electrophoresis was directly performed. GenScript, a 4-20% gradient protein precast gel was used as the electrophoresis gel. The electrophoresis tank and related components were purchased from Bio-rad, and the electrophoresis conditions were equal pressure 120 v for 2 hours. PVDF membrane was used for the transfer membrane, and the transfer membrane system was placed on ice with an equal current of 400 mA for one hour. After transferring the membrane, it was sealed with TBST+5% milk powder for half an hour. For the specific steps of immunoblotting, refer to the antibody instructions of Cell Signaling Technology.
DC50 (the drug concentration corresponding to protein degradation to 50%) calculation: according to the gray value of the Western blotting band after the drug is processed, the relationship curve between the drug concentration and the gray value is fitted by Prism GraphPad software to calculate the drug concentration range corresponding half of the gray value.
The cells with different concentrations (0, 10, 50, 100, 500 nM) of Brigatinib were first treated in SR cells for 16 hours. Western blotting was used on cell lysate to detect the effect of Brigatinib on the content of ALK protein (FIG. 2).

[1] = system: SR cells (NPM-ALK, human anaplastic large cell lymphoma cells); assay: Proliferation inhibition (IC50) in SR cells, CCK8 (WST) reagent; settings: 72 h
Protocol: The ALK gene rearrangement positive cell line used was SR cells (NPM-ALK, human anaplastic large cell lymphoma cells). MDA-MB231 was a triple-negative breast cancer cell. Both SR cells and MDA-MB231 cells were purchased from ATCC.
The tumor cell line used was daily cultured in a 37° C. incubator containing 5% CO2. The medium was RPMI1640 supplemented with 10% FCS and Penicillin-Streptomycin.
(§2) The IC50 of the compound of the present disclosure was determined using Promega's Cell Titer Blue, Cell Titer GLO or commercially available WST reagents. The specific steps were as follows: the cells were seeded in a 96-well plate containing 100 microliters of RPMI medium containing serum at a number of 2000 cells/well. On the second day, the original drug and the compound of the present disclosure were serially diluted and added to the cells. After 72 hours of treatment with the compound of the present disclosure, the cell activity detection reagent was added to the culture medium for cell activity determination according to the instructions. The negative control was DMSO, and the positive control was the original drug, and the cells were treated in the same manner as the compound of the present disclosure. The growth inhibition of the compounds of the present disclosure on cells was plotted by Prism Graphpad software and the IC50 of the compounds of the present disclosure was counted from it.
We conducted dose-dependent experiments on the designed and synthesized compounds of the present disclosure in SR cells. […] The cells were treated with different concentrations of compounds (starting at 10 μM, 3 times dilution factor, 10 concentrations). After 72 hours, the cells were detected using CCK8 reagent (WST).

[2] = system: triple-negative breast cancer MDA-MB-231 cell line; assay: Proliferation inhibition (IC50) in MDA-MB-231 cell line; settings: Homo sapiens, WST reagent, 72 hours, read-out: IC50 (half inhibitory concentration) in MDA-MB-231 cell line
Protocol: as §1, §2

[3] = system: 293T cells overexpressing EML4-ALK G1202R; assay: Proliferation inhibition (IC50) in 293T cells overexpressing EML4-ALK G1202R; settings: Homo sapiens, HEK-293T; WST reagent, 72 hours; read-out: IC50 (half inhibitory concentration) in 293T cells overexpressing EML4-ALK G1202R
Protocol: as §2

[4] = 16 hours, concentration range at half of the gray value, read-out: DC50 (half degradation concentration), Brigatinib series in lymphoma cell lines
[5] = SR cells, WST reagent, 72 hours, read-out: IC50 (half inhibitory concentration), Brigatinib series in lymphoma cell lines
[6] = read-out: DC50 (half degradation concentration), Alectinib series in lymphoma cell lines, 16 hours, concentration range at half of the gray value
[7] = read-out: IC50 (half inhibitory concentration), Alectinib series in lymphoma cell lines, SR cells, WST reagent, 72 hours

T1 sequence (Q9UM73 with tags, fused parts or gaps): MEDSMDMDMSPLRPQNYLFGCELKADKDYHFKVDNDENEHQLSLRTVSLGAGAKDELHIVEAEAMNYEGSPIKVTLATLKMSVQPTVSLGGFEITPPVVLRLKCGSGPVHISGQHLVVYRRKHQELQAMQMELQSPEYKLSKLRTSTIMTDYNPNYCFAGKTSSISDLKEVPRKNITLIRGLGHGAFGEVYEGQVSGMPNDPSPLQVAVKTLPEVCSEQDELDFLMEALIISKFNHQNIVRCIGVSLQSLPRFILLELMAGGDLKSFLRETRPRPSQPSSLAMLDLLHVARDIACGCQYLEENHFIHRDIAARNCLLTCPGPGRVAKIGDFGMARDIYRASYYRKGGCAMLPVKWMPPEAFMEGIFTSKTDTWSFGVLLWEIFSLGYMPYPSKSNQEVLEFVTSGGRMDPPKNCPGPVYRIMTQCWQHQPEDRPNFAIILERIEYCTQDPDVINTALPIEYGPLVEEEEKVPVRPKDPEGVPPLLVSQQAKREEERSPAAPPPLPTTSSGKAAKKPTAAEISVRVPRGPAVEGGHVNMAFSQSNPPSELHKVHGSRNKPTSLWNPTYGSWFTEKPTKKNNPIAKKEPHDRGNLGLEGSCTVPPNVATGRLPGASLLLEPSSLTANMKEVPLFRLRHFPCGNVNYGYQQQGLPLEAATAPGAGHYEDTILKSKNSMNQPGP

Row | Structure (SMILES) | DC50 (ALK protein; [4]) | IC50 [1, 5] | concentration from which a degradation effect on ALK protein is shown (ALK protein) | IC50 [2] | further results
1 | CCc1cc2c(cc1N1CCC(N3CCN(C(=O)COc4cccc5c4C(=O)N(C4CCC(=O)NC4=O)C5=O)CC3)CC1)C(C)(C)c1[nH]c3cc(C#N)ccc3c1C2=O (stereo not drawn) [SIAIS293010, 8-(4-(4-(2-((2-(2,6-dioxopiperidin-3-yl)-1,3-dioxoisoindolin-4-yl)oxy)acetyl)piperazin-1-yl)piperidin-1-yl)-9-ethyl-6,6-dimethyl-11-oxo-6,11-dihydro-5H-benzo[b]carbazole-3-carbonitrile] |  |  | 0.5 nM |  | DC50 (ALK protein; [6]): 0.05 to 0.5 nM; IC50 [1, 7]: 2 nM
2 | COc1cc(N2CCC(N3CCN(CCCCCCCC#Cc4cccc5c4CN(C4CCC(=O)NC4=O)C5=O)CC3)CC2)ccc1Nc1ncc(Cl)c(Nc2ccccc2P(C)(C)=O)n1 (stereo not drawn) [SIAIS293018, 3-(4-(9-(4-(1-(4-((5-chloro-4-((2-(dimethylphosphono)phenyl)amino)pyrimidin-2-yl)amino)-3-methoxyphenyl)piperidin-4-yl)piperazin-1-yl)non-1-yn-1-yl)-1-oxoisoindolin-2-yl)piperidine-2,6-dione] | 0.05 to 0.5 nM | 2 nM | 5 nM |  | 
3 | CCc1cc2c(cc1N1CCC(N3CCN(CCCC#Cc4cccc5c4CN(C4CCC(=O)NC4=O)C5=O)CC3)CC1)C(C)(C)c1[nH]c3cc(C#N)ccc3c1C2=O (stereo not drawn) [SIAIS293001, 8-(4-(4-(5-(2-(2,6-dioxopiperidin-3-yl)-1-oxoisoindolin-4-yl)pent-4-yn-1-yl)piperazin-1-yl)piperidin-1-yl)-9-ethyl-6,6-dimethyl-11-oxo-6,11-dihydro-5H-benzo[b]carbazole-3-carbonitrile] |  |  |  |  | DC50 (ALK protein; [6]): 0.05 to 0.5 nM; IC50 [1, 7]: 2.7 nM
4 | COc1cc(N2CCC(N3CCNCC3)CC2)ccc1Nc1ncc(Cl)c(Nc2ccccc2P(C)(C)=O)n1 [Brigatinib derivative C (SIAIS164005), (2-((5-Chloro-2-((2-methoxy-4-(4-(piperazin-1-yl)piperidin-1-yl)phenyl)amino)pyrimidin-4-yl)amino)phenyl) dimethyl phosphine oxide, reference compound] |  | 11.1 nM |  |  | degradation effect on ALK protein (ALK protein; 16 hours, concentrations up to 500 nM): no degradation effect
5 | COc1cc(N2CCC(N3CCN(CCCCCc4cccc5c4CN(C4CCC(=O)NC4=O)C5=O)CC3)CC2)ccc1Nc1ncc(Cl)c(Nc2ccccc2P(C)(C)=O)n1 (stereo not drawn) [SIAIS352008, 3-(4-(5-(4-(1-(4-((5-chloro-4-((2-(dimethylphosphono)phenyl)amino)pyrimidin-2-yl)amino)-3-methoxyphenyl)piperidin-4-yl)piperazin-1-yl)pentyl)-1-oxoisoindolin-2-yl)piperidine-2,6-dione] | 0.05 to 0.5 nM | 2.1 ± 1.2 nM |  | 4.5 ± 0.5 nM | 
6 | CCc1cc2c(cc1N1CCC(N3CCN(C(=O)CNc4cccc5c4CN(C4CCC(=O)NC4=O)C5=O)CC3)CC1)C(C)(C)c1[nH]c3cc(C#N)ccc3c1C2=O (stereo not drawn) [SIAIS262091, 8-(4-(4-{(2-(2,6-dioxopiperidin-3-yl)-1-oxoisoindolin-4-yl)aminoacetyl)piperazin-1-yl)piperidin-1-yl)-9-ethyl-6,6-dimethyl-11-oxo-6,11-dihydro-5H-benzo[b]carbazole-3-carbonitrile] |  |  | less than 0.005 nM |  | DC50 (ALK protein; [6]): 0.05 to 0.5 nM; IC50 [1, 7]: ~0.34 nM

Further lines, with some results ahead:

Row | DC50 (ALK protein; [4]) | IC50 [1, 5] | concentration from which a degradation effect on ALK protein is shown (ALK protein) | IC50 [2] | Structure (SMILES) | further results
7 | 0.5 to 5 nM | 1.5 nM |  |  | COc1cc(N2CCC(N3CCN(CCCCCCC#Cc4cccc5c4CN(C4CCC(=O)NC4=O)C5=O)CC3)CC2)ccc1Nc1ncc(Cl)c(Nc2ccccc2P(C)(C)=O)n1 (stereo not drawn) [SIAIS293017, 3-(4-(8-(4-(1-(4-((5-chloro-4-((2-(dimethylphosphono)phenyl)amino)pyrimidin-2-yl)amino)-3-methoxyphenyl)piperidin-4-yl)piperazin-1-yl)oct-1-yn-1-yl)-1-oxoisoindolin-2-yl)piperidine-2,6-dione] | 
8 | 0.5 to 5 nM | 1.2 ± 0.3 nM |  | 4.9 ± 1.04 nM | COc1cc(N2CCC(N3CCN(CCSc4cccc5c4CN(C4CCC(=O)NC4=O)C5=O)CC3)CC2)ccc1Nc1ncc(Cl)c(Nc2ccccc2P(C)(C)=O)n1 (stereo not drawn) [SIAIS352011, 3-(4-((2-(4-(1-(4-((5-chloro-4-((2-(dimethylphosphono)phenyl)amino)pyrimidin-2-yl)amino)-3-methoxyphenyl)piperidin-4-yl)piperazin-1-yl)ethyl)thio)-1-oxoisoindolin-2-yl)piperidine-2,6-dione] | 
9 |  | 1.3 nM |  | 191 ± 106 nM | COc1cc(N2CCC(NCCCC#Cc3cccc4c3CN(C3CCC(=O)NC3=O)C4=O)CC2)ccc1Nc1ncc(Cl)c(Nc2ccccc2P(C)(C)=O)n1 (stereo not drawn) [SIAIS293093, 3-(4-(5-((1-(4-((5-chloro-4-((2-(dimethylphosphono)phenyl)amino)pyrimidin-2-yl)amino)-3-methoxyphenyl)piperidin-4-yl)amino)pent-1-yn-1-yl)-1-oxoisoindolin-2-yl)piperidine-2,6-dione] | 
10 |  | ~1 nM | less than 0.005 nM | 22.5 ± 2.26 nM | COc1cc(N2CCC(N3CCN(CCCC#Cc4cccc5c4CN(C4CCC(=O)NC4=O)C5=O)CC3)CC2)ccc1Nc1ncc(Cl)c(Nc2ccccc2P(C)(C)=O)n1 (stereo not drawn) [SIAIS262039, 3-(4-(5-(4-(1-(4-((5-chloro-4-((2-(dimethylphosphono)phenyl)amino)pyrimidin-2-yl)amino)-3-methoxyphenyl)piperidin-4-yl)piperazin-1-yl)pent-1-yn-1-yl)-1-oxoisoindolin-2-yl)piperidine-2,6-dione] | 
11 | 0.05 to 0.5 nM | 1.1 nM |  |  | COc1cc(N2CCC(N3CCN(CCCCC#Cc4cccc5c4CN(C4CCC(=O)NC4=O)C5=O)CC3)CC2)ccc1Nc1ncc(Cl)c(Nc2ccccc2P(C)(C)=O)n1 (stereo not drawn) [SIAIS262040, 3-(4-(6-(4-(1-(4-((5-chloro-4-((2-(dimethylphosphono)phenyl)amino)pyrimidin-2-yl)amino)-3-methoxyphenyl)piperidin-4-yl)piperazin-1-yl)hex-1-yn-1-yl)-1-oxoisoindolin-2-yl)piperidine-2,6-dione] | 
12 |  | 1.1 ± 0.3 nM |  | 75 ± 58 nM | COc1cc(N2CCC(N3CCN(CCCCc4cccc5c4CN(C4CCC(=O)NC4=O)C5=O)CC3)CC2)ccc1Nc1ncc(Cl)c(Nc2ccccc2P(C)(C)=O)n1 (stereo not drawn) [SIAIS352059, 3-(4-(4-(4-(1-(4-((5-chloro-4-((2-(dimethylphosphono)phenyl)amino)pyrimidin-2-yl)amino)-3-methoxyphenyl)piperidin-4-yl)piperazin-1-yl)butyl)-1-oxoisoindolin-2-yl)piperidine-2,6-dione] | 
13 | 0.05 to 0.5 nM | 0.1 ± 0.02 nM |  |  | COc1cc(N2CCC(N3CCN(Cc4ccc(CSc5cccc6c5CN(C5CCC(=O)NC5=O)C6=O)cc4)CC3)CC2)ccc1Nc1ncc(Cl)c(Nc2ccccc2P(C)(C)=O)n1 (stereo not drawn) [SIAIS293189, 3-(4-((4-((4-(1-(4-((5-chloro-4-((2-(dimethylphosphono)phenyl)amino)pyrimidin-2-yl)amino)-3-methoxyphenyl)piperidin-4-yl)piperazin-1-yl)methyl)benzyl)thio)-1-oxoisoindolin-2-yl)piperidine-2,6-dione] | IC50 [3]: 99.5 ± 8.62 nM
